Measured values published in patent publication US9428791B2, “Probes of RNA structure and methods for using the same” (The Board of Trustees of the Leland Stanford Junior …, priority 2012, dated 2016).
Like-named read-outs stand apart in the source and are kept apart here.

How the values were obtained:
ATP [1] = tested on: ATP
Method: Briefly, 10,000 cpm/uL of radiolabeled ATP is incubated with increasing amounts of NAI or FAI (10% final volume) in 100 mM HEPES buffer, pH 8.0, containing 6 mM MgCl2, 100 mM NaCl. Reactions are stopped by addition of an equal volume of Gel Loading Buffer 11 (Ambion, Inc.) and placed on ice. […] Single adduct reaction rates and percentages are calculated by integrating bands (Image Quant, IM Support) and fit to a single exponential.

5S rRNA [2] = assay type: cell-based; settings: cultured human cancer cells
Method: (§1) Cells are then spun down and decanted. […] Extensions are performed for ten minutes.

5S rRNA [3] = assay type: cell-based, mouse
Method: as §1

[4] = Hydrolysis of NAI and FAI in aqueous buffer (absorbance decay); assay type: physicochemical; settings: 100 mM HEPES, 100 mM NaCl, 10 mM MgSO4, pH 8.0; fit f=y0+a*exp(−b*x); in 1/min
Method: Hydrolysis of NAI and FAI. Hydrolysis of NAI and FAI is monitored by adding 1.5 μL of a 100 mM solution of either NAI or FAI in spectroscopic grade DMF to 598.5 μL of buffer (100 mM HEPES, 100 mM NaCl, 10 mM MgSO4, pH 8.0) and monitoring the decrease in absorbance at 265 nm (NAI) or 275 nm (FAI). Three parameter pseudo-first order exponential decay kinetics are fit using OriginPro 8.0 software using the equation: f=y0+a*exp(−b*x)

human 5S rRNA = assay: Acylation of 5S rRNA in vitro (SHAPE)
Method: Acylation of RNA, in vitro. In a typical in vitro modification protocol, 6 μg total RNA is heated in metal-free water for two minutes at 95° C. The RNA is then flash-cooled on ice. The RNA 3× SHAPE buffer (333 mM HEPES, pH 8.0, 20 mM MgCl2, 333 mM NaCl) is added and the RNA allowed to equilibrate at 37° C. for ten minutes. To this mixture, 1 μL of 10× electrophile stock in DMSO (+) or DMSO (−) is added. The reaction is permitted to continue until the desired time. Reactions are quenched with 60 μL of DMS stop solution (0.5 M β-mercaptoethanol, 0.75 M Na.acetate, pH 5.5). Reactions are extracted once with acid phenol:chloroform (pH 4.5±0.2) and twice with chloroform. RNA is precipitated with 40 μL of 3M sodium acetate buffer (pH 5.2) and 1 μL of glycogen (20 ug/uL).
(§2) Extensions are performed for ten minutes.

ATP [5] = assay: ATP gel shift acylation
Description: ATP gel shift. […] Chem. Soc. 127, 4223-4231, (2005).

5S rRNA [6] = assay: Acylation of RNA in E. coli cells; assay type: cell-based, Escherichia coli
Method: Acylation of RNA in E. coli cells. […] E. coli cells are grown to an OD600 of 0.25 at 37° C. in […]. Cells are spun down at 4000×g and decanted. […] Cells are resuspended in a final volume of a fresh solution of 800 μl 0.5 mg/ml lysozyme, TE pH 8.0. 80 μl of 10% SDS is added to the mixture and the slurry is placed at 64° C. for 1-2 min. After incubation add 88 μl 1 M NaOAc, pH5.2 is added. The samples are added to an equal volume (1 ml) of water-saturated phenol (pH <7.0) and incubated at 64° C. for 6 min. The resultant slurry is spun at max speed (14,000 rpm) for 10 min at 4° C. […] Reverse transcription primer used for E. coil 5S rRNA: 5′-[…] (SEQ ID NO: 10).
as §2

5S rRNA [7] = assay: Acylation of RNA in yeast cells; assay type: cell-based, Saccharomyces cerevisiae
Method: Acylation of RNA in yeast cells. […] Yeast cells are grown to an OD600 of 1.0 at 30° C. in YPD medium. Cells are spun down at 4000×g and decanted. […] Cells are then spun down, decanted, and flash frozen in liquid nitrogen. Frozen pellets are resuspended in 500 uL of 50 mM NaOAc pH5.0, 10 mM EDTA pH 8.0 and 100 uL of 10% SDS. […] Cells are incubated at 65° C. for 1 minute. The freeze thaw cycle is repeated three times.
as §2

5S rRNA [8] = assay type: cell-based, Drosophila melanogaster; settings: Drosophila S2 cells
Method: as §1

[9] = tested on: U1 snRNA, U2 snRNA, SNORD3A; assay: Acylation of nuclear RNAs in HeLa S3 cells; assay type: cell-based, Homo sapiens; settings: HeLa S3, 200 mM final, thirty minutes
Method: Cells are then spun down and decanted. […] NO: 12). […] NO:7) (SEQ ID NO:13). […] NO:14). […] Extensions are performed for ten minutes.

ATP [10] = settings: see Weeks et al., J. Am. Chem. Soc. 127, 4223-4231, 2005; cited from earlier work
HOTAIR = assay: Secondary structure probing of in vitro transcribed HOTAIR RNA; settings: 5′ end of HOTAIR
Method: ABI-1 as a probe of RNA secondary structure. To evaluate the compound's ability to modify RNA at conformationally flexible positions ABI-1 was tested in comparison to NMIA. […] After incubation, the RNA was extracted and precipitated with ethanol.
ABI-1 Reversible Modification and Cell-Permeability. […] FIG. 15A.

Solubility = assay type: physicochemical

Compound	Result (qualitative: reactivity toward ATP, hydrolysis, solubility) (ATP [1])	5S rRNA modification in cells (5S rRNA [2])	Cell attachment, morphology and trypan blue staining (V6.5 mESCs)	Time at which modification signal begins to plateau (5S rRNA [3]; 100 mM NAI, murine ESCs) [min]	Time to 5S rRNA modification with suitable signal-to-noise ratio (5S rRNA [3]; 100 mM NAI, murine ESCs)	5S rRNA modification in cells (reverse transcription blocks) (5S rRNA [3]; live mouse ESC, aqueous buffer)	Extent of modification in cells, comparison of probes (5S rRNA [3]; same concentration)	b (pseudo-first order exponential decay constant of hydrolysis) [4]	Sites of modification mapped to predicted secondary structure (human 5S rRNA)	Retained reactivity with ATP in aqueous buffer (ATP [5])	5S rRNA modification in cells (5S rRNA [6])	5S rRNA modification in cells (5S rRNA [7])	5S rRNA modification in cells (5S rRNA [8])	Modification of nuclear, lower abundant RNAs [9]	Retained reactivity in aqueous buffer (ATP [10])	Mapping of RNA secondary structure (HOTAIR)	maximum solubility (Solubility) [mM]
N#CC(=O)OCc1ccccc1	Too Reactive, High Hydrolysis	–	–	–	–	–	–	–	–	–	–	–	–	–	–	–	–
Cc1ncccc1C(=O)n1ccnc1 [NAI, 2-methylnicotinic acid imidizolide]	–	modifies 5S rRNA	remained attached to tissue culture vessel, appeared morphologically normal and unstained by trypan blue	≤ 15	in as little as one minute	caused blocks in subsequent reverse transcription	greater extent of modification than FAI	.020476	map to residues that are predicted to be flexible	retain reactivity with ATP at 120 minutes	modifies 5S rRNA	modifies 5S rRNA	modifies 5S rRNA	modifies nuclear, lower abundant RNAs	–	–	–
Cn1c(=O)oc(=O)c2ccccc21 [NMIA, N-methylisotoic anhydride]	–	–	–	–	–	–	–	–	map to residues that are predicted to be flexible	–	–	–	–	–	mostly quenched after thirty minutes	successfully mapped the predicted secondary structure of the 5′ end of HOTAIR	13
